# Measured values published in ChEMBL document CHEMBL1201862, “PubChem BioAssay data set” (2004).
# The source made the active and inactive calls.
# Assays:
# Staphylococcus aureus = experiment: Inhibitors of Bacterial Quorum Sensing Structure Activity Relationship (SAR) Analysis: Dose Response Assay. [Related pubchem assays: 700, 527 ]; assay type: functional, organism-based
# Protein Rev = Protein Rev (Human immunodeficiency virus type 1 group M subtype B (isolate WMJ22)(HIV-1), UniProt P05866); experiment: inhibitors of Rev protein–RRE RNA complex – biochemical, protein-RNA interaction, dose response (AID 842); design: species or system Human immunodeficiency virus 1
# Nonstructural protein 1 = Nonstructural protein 1 (Influenza A virus, UniProt Q194T2); assay type: functional, Influenza A virus (A/California/07/2009(H1N1))
# [1] = biological target: Matrix metalloproteinase-14 (Homo sapiens, UniProt P50281); experiment: Dose Response confirmation of uHTS hits for a small molecule inhibitors of MT1-MMP activation in a fluorescence assay set 1.; assay type: functional
# [2] = biological target: Neuropeptides B/W receptor type 1 (Homo sapiens, UniProt P48145); experiment: Fluorescence-based dose response cell-based high throughput screening assay to identify antagonists of the G-protein coupled receptor 7 (GPR7). [Related pubchem assays: 1952 (Screening assay (GPR7 antagonists).), 1880 (Summary AID.)]; assay type: functional
# [3] = biological target: T1, Melanin-concentrating hormone receptor 1 (Homo sapiens, UniProt Q99705); experiment: Fluorescence-based counterscreen for antagonists of the G-protein coupled receptor 7 (GPR7): cell-based high throughput dose response assay to identify antagonists of the melanin-concentrating hormone receptor 1 (MCHR1).; assay type: functional
# [4] = biological target: T2, Heat shock 70 kDa protein 1A (Homo sapiens, UniProt P0DMV8); experiment: small-molecule inhibition of Hsp70 – biochemical, TR-FRET (AID 786)
# [5] = biological target: T2, Heat shock 70 kDa protein 1A; experiment: small molecules displacing fluorescent ligand from Hsp70 – biochemical, fluorescence polarization, primary screen (AID 583)
# [6] = biological target: T3, Replicative DNA helicase DnaB (Mycobacterium tuberculosis, UniProt P9WMR3); experiment: DnaB intein splicing inhibitors, dose response, biochemical, cell-free fluorescence (AID 449749); assay type: functional
# T3 sequence (P9WMR3 whole entry): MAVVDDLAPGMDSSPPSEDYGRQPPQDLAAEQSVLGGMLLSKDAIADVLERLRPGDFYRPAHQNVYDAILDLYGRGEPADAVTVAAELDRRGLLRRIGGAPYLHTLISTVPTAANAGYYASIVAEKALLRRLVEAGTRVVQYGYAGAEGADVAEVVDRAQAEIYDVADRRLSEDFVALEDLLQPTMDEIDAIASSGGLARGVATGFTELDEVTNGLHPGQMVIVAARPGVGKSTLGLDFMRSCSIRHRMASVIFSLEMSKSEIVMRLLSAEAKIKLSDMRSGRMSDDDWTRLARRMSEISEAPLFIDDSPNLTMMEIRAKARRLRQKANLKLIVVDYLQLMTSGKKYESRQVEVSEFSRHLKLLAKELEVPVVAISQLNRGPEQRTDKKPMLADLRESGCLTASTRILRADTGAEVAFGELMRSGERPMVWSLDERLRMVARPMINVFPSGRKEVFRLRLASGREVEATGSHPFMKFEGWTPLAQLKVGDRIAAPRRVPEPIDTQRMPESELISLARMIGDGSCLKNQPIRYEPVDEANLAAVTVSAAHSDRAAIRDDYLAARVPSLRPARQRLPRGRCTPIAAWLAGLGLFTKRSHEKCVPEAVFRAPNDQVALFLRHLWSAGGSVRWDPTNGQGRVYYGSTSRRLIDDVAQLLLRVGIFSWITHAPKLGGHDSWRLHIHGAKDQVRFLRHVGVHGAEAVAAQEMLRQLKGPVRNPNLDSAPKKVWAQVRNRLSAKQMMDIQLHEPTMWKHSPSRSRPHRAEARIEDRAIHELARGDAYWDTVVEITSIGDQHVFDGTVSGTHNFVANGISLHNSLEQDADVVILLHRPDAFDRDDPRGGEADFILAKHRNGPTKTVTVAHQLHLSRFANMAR
# Protein RecA = biological target: T4, Protein RecA (Mycobacterium tuberculosis, UniProt P9WHJ3); experiment: Fluorescence Cell-Free Homogeneous Dose Retest to Identify Inhibitors of RecA-Intein Splicing Activity. [Related pubchem assays (depositor defined):AID2097, AID2223, AID489010, AID492950]; assay type: functional
# T4 sequence (P9WHJ3 whole entry): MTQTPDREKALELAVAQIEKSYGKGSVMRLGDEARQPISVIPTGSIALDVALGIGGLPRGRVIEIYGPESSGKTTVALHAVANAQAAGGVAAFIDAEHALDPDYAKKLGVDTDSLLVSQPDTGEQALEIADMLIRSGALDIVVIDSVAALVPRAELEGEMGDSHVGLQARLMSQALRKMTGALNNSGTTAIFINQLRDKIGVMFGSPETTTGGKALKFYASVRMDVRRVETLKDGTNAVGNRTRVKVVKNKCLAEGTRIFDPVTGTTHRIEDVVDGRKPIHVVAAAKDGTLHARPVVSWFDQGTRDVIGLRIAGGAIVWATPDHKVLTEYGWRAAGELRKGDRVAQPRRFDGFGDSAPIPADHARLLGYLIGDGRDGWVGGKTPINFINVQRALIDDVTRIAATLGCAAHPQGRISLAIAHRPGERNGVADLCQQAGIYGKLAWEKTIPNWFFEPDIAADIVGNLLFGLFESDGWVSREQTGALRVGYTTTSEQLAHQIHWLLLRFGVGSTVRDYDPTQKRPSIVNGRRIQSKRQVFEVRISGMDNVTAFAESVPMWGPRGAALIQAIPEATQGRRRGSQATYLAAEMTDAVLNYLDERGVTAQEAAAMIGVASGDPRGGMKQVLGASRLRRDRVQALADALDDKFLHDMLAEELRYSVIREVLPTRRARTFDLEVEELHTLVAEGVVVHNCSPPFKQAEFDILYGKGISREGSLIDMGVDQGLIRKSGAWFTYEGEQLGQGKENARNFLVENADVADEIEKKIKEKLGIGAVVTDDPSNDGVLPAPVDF
# [7] = biological target: Serine/threonine-protein phosphatase PP1-alpha catalytic subunit (Homo sapiens, UniProt P62136); experiment: inhibition of protein phosphatase 1 activity – biochemical, fluorescence, dose response (AID 2403);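 also: phosphatase turnover of OMFP into fluorescent 3-O-methylfluorescein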
# [8] = biological target: T5, Serine/threonine-protein phosphatase (Homo sapiens, UniProt Q9BPW0); experiment: Counterscreen for inhibitors of PP1: fluorescence-based biochemical high throughput dose response assay to identify inhibitors of Protein Phosphatase 5 (PP5). [Related pubchem assays: 2034 (Summary (PP5 inhibitors)), 1987 (PP5 inhibitors in singlate), 2235 (PP1 inhibitors in singlate)]
# T5 sequence (Q9BPW0 whole entry): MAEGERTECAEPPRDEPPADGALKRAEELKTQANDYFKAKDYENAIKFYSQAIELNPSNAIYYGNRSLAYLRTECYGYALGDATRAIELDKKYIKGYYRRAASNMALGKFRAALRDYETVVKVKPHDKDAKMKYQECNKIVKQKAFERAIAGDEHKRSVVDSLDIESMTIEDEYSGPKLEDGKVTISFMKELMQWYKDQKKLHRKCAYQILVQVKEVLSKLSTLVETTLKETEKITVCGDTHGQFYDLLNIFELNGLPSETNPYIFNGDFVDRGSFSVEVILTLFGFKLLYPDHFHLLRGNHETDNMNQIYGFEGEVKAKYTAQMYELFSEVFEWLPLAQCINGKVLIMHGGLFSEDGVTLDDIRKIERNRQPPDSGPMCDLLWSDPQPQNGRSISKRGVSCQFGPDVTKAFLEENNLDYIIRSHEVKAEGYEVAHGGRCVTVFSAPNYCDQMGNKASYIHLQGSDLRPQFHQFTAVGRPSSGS
# [9] = bead-based luminescence quenchers, dual-tagged ARNT – biochemical, AlphaScreen, cherry-pick, artefact control for ARNT-TACC3 interaction inhibitor project, dose response (AID 651705); assay type: functional;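 also: AlphaScreen bead proximity signal that flags compounds interfering with the detection technology; potency reflects signal decrease which marks the compound as an assay artifact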
# [10] = biological target: Luciferin 4-monooxygenase (Photinus pyralis, UniProt P08659); experiment: Counter Screen for Luciferase-based Assay Positives. [Related pubchem assays: 620, 618, 411 ]
# HT-1080 = experiment: HT1080 cell viability loss – fluorescence readout (AID 620); assay type: functional, cell-based; conditions: Homo sapiens
# [11] = biological target: Dual specificity protein phosphatase 3 (Homo sapiens, UniProt P51452); experiment: inhibition constants for human DUSP3 – biochemical, colorimetric, SAR follow-up (AID 2004)
# [12] = biological target: T1, Melanin-concentrating hormone receptor 1; experiment: Late-stage fluorescence-based counterscreen for antagonists of the G-protein coupled receptor 7 (GPR7): cell-based dose response assay to identify antagonists of the melanin-concentrating hormone receptor 1 (MCHR1). [Related pubchem assays (depositor defined):AID1861, AID1880, AID1952, AID2148, AID2251, AID2257, AID485339]; assay type: functional
# Wee1-like protein kinase = Wee1-like protein kinase (Homo sapiens, UniProt P30291); experiment: HeLa cell cycle G2/M accumulation – FACS, mechanism study for Wee1 degradation inhibitor project, late-stage follow-up, panel member Wee1 Degradation (AID 2088)
# [13] = biological target: G2/mitotic-specific cyclin-B1 (Homo sapiens, UniProt P14635); experiment: HeLa cell cycle G2/M accumulation – FACS, mechanism study for Wee1 degradation inhibitor project, late-stage follow-up, panel member Cyclin B Degradation (AID 2088)
# [14] = Luminescence Cell-Based Dose Confirmation HTS to Identify Activators of 5'UTR Stem-Loop Driven Alpha-Synuclein mRNA Translation in H4 Neuroglioblastoma Cells. [Related pubchem assays: 1829 (Project Summary), 1814 (Primary HTS)]; assay type: functional
# [15] = Luminescence Cell-Based Dose Response HTS to Identify Activators of Luciferase Translation or Activity in H4 […] Cells. [Related pubchem assays: 1829 (Project Summary), 1814 (Primary HTS)]; assay type: functional
# HeLa = experiment: Cytotoxicity counterscreen assay for transcriptional activators of heat shock protein 70 (Hsp70). [Related pubchem assays: 1203, 1252 ]; assay type: functional; conditions: Homo sapiens;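 also: cells exposed to compound for 16 hours before readout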
# BJ [16] = experiment: BJ-TERT fibroblast viability loss – cell-based, RAS-independent, luminescence, dose response (AID 1933); assay type: functional; conditions: Homo sapiens
# H4 = experiment: Luminescence Cell-Based Dose Response HTS to Identify Activators of 5'UTR Stem-Loop Driven Prion Protein mRNA Translation in H4 Neuroglioblastoma Cells. [Related pubchem assays: 1829 (Project Summary), 1814 (Primary HTS)]; assay type: functional; conditions: Homo sapiens
# BJ [17] = experiment: cells; assay type: functional, cell-based; conditions: Homo sapiens
# BJ [18] = experiment: BJ-TERT-LT-ST fibroblast viability loss – cell-based, RAS-independent, luminescence, dose response (AID 1935); assay type: functional; conditions: Homo sapiens;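 also: BJ fibroblasts immortalized with TERT plus LT and ST oncogenes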
# [19] = DRD fibroblast viability loss – cell-based, non-viral oncogenic, luminescence, dose response (AID 1934); assay type: functional; conditions: Homo sapiens
# [20] = HEK-293T viability loss after treatment – luminescence, T-cell screen hits, cytotoxicity control for TCR NF-kB inhibitor project, dose response (AID 489026); assay type: functional, cell-based;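 also: cells exposed to compound about 14 hours before the viability readout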
# [21] = biological target: Heat shock protein HSP 90-alpha (Homo sapiens, UniProt P07900); assay type: functional, organism-based
# BJ [22] = experiment: growth inhibition of engineered Ras-driven BJ cells – cell-based, alamar blue fluorescence, cherrypicked samples, dose response (AID 2631); assay type: functional; conditions: Homo sapiens;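 also: confirmatory dose-response assay in RAS-dependent BJ fibroblasts engineered with TERT, LT and ST, with cytotoxicity read by fluorescence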
# INS1 = experiment: INS-1E survival protection against cytokine death – cell-based, luminescence, retest, dose response (AID 449756); assay type: functional; conditions: Rattus norvegicus;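 also: cell death triggered by IL-1 beta plus TNF-alpha plus IFN-gamma mixture; protective hits raise ATP signal compared with cytokine alone wells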
# T2 sequence (P0DMV8 whole entry): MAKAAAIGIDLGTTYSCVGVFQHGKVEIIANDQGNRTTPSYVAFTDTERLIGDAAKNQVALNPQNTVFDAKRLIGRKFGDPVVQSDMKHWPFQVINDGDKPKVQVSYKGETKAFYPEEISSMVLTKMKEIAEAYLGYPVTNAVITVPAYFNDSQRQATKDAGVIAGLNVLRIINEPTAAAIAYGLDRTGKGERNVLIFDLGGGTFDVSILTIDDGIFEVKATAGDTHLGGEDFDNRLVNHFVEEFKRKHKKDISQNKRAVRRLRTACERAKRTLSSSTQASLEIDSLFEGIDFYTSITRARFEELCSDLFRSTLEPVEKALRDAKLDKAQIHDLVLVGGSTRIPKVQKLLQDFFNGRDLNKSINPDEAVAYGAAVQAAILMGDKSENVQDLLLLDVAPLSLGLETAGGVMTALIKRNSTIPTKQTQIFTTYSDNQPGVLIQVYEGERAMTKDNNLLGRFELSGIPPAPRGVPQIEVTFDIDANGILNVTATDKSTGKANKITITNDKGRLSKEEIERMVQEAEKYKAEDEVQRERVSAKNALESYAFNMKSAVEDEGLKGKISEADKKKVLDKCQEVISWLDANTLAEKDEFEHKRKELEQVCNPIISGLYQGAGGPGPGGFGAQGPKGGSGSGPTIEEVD
# T1 sequence (Q99705 whole entry): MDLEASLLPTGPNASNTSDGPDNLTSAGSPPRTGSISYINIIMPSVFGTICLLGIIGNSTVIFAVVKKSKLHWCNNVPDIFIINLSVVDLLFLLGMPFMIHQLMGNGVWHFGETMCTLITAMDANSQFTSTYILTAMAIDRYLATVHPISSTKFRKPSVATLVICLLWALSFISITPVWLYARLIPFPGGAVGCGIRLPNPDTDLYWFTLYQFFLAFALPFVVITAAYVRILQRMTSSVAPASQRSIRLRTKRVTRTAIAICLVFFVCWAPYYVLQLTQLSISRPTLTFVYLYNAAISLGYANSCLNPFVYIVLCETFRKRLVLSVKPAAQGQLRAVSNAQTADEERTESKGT
# Sequence of Neuropeptides B/W receptor type 1 (P48145 whole entry): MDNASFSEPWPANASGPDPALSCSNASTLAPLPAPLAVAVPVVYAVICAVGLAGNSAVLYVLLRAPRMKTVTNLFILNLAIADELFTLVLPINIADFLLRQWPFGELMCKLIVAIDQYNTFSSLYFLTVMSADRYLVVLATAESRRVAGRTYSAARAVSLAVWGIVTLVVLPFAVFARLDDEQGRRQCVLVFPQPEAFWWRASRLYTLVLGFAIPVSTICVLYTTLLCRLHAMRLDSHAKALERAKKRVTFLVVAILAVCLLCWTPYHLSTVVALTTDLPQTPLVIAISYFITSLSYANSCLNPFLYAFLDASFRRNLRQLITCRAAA
# Sequence of Nonstructural protein 1 (Q194T2 whole entry): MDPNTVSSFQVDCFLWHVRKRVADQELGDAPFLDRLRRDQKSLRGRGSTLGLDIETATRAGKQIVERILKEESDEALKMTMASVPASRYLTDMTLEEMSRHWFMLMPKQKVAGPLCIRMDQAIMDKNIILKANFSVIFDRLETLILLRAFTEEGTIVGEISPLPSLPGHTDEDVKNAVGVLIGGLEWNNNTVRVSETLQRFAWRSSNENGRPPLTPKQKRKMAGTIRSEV
# Sequence of Serine/threonine-protein phosphatase PP1-alpha catalytic subunit (P62136 whole entry): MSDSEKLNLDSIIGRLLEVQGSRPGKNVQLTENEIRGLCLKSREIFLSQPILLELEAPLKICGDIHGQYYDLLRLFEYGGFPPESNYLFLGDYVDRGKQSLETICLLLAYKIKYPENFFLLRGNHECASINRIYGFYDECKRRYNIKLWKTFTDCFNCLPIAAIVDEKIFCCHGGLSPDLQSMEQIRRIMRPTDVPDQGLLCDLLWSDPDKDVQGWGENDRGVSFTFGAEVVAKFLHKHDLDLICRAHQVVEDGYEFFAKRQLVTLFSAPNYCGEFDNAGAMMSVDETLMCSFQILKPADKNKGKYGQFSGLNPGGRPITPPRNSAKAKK
# Sequence of Luciferin 4-monooxygenase (P08659 whole entry): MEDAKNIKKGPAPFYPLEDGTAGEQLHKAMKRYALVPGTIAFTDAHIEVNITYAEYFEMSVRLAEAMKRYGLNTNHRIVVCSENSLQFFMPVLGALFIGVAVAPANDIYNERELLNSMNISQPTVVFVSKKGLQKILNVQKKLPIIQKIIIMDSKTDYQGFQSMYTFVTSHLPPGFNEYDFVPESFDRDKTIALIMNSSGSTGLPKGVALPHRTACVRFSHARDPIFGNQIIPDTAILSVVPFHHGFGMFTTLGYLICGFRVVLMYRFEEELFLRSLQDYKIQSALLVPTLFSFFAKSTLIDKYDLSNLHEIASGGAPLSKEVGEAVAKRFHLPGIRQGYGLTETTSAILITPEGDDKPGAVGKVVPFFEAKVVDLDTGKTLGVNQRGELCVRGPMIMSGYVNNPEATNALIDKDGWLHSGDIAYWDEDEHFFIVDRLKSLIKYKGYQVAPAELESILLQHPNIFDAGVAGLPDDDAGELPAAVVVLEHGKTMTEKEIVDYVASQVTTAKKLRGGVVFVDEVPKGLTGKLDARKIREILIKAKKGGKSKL
# Sequence of Dual specificity protein phosphatase 3 (P51452 whole entry): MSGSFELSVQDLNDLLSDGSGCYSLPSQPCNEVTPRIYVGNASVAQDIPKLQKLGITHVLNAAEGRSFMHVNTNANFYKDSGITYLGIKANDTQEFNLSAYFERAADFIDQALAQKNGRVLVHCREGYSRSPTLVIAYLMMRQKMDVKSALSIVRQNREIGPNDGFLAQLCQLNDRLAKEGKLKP
# Sequence of Wee1-like protein kinase (P30291 whole entry): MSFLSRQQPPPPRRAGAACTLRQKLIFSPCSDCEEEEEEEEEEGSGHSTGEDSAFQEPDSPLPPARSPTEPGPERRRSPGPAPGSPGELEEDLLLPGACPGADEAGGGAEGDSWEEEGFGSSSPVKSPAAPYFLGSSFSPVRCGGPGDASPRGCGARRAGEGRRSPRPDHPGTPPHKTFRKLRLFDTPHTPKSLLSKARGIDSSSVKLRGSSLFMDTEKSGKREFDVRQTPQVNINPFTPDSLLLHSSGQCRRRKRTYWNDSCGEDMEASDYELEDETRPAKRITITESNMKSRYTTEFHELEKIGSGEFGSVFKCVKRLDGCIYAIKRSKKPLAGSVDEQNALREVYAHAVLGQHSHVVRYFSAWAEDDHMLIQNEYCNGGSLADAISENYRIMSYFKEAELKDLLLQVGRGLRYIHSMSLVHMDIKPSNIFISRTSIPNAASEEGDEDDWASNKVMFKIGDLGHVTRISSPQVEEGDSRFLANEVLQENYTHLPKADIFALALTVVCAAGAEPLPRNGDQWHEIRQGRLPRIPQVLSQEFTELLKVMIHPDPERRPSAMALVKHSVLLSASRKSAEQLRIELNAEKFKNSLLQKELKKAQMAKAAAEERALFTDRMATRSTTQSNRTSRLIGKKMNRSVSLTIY
# Sequence of G2/mitotic-specific cyclin-B1 (P14635 whole entry): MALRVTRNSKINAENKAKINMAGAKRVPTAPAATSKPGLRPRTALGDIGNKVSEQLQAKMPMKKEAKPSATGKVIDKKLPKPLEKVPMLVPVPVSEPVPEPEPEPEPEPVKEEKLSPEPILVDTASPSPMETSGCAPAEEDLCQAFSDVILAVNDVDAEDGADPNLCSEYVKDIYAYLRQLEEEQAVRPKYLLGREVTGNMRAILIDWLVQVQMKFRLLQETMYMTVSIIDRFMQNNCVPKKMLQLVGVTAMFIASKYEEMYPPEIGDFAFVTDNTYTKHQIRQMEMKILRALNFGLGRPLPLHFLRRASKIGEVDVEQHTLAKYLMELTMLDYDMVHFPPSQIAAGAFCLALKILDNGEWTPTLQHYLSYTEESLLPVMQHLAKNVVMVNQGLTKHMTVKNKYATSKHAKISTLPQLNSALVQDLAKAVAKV
# Sequence of Protein Rev (P05866 whole entry): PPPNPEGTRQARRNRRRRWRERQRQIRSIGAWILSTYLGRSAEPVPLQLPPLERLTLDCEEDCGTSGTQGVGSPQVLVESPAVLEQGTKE
smiles,measurement,setting,value
CC1CCN(C(C(=O)Nc2ccc3c(c2)OCO3)c2ccccc2)CC1 (stereo unspecified),IC50,Staphylococcus aureus,0.976 µM (active)
CC1=NN(c2ccccc2)C(=O)C1N=Nc1ccc(N)cc1 (stereo unspecified),IC50,Protein Rev,> 79.4 µM (not active)
same,IC50,Nonstructural protein 1,10.5 µM (active)
same,IC50,[1],> 80 µM (inactive)
O=C(Oc1ccc(C(=S)N2CCOCC2)cc1)c1ccccc1,IC50,[2],> 43.8 µM (not active)
same,IC50,[3],> 14.6 µM (not active)
CC(=O)N1CCC2(CC1)C(C#N)=C(N)Oc1[nH]nc(C)c12,IC50,[4],> 100 µM (not active)
same,IC50,[5],> 100 µM (not active)
same,AC50,[6],8.21 µM (active)
same,EC50,Protein RecA,1.36 µM (active)
COc1cc(NS(=O)(=O)c2ccc(Nc3nc(-c4ccccn4)cs3)cc2)nc(OC)n1,IC50,[7],3.63 µM (active)
same,IC50,[8],> 67 µM (not active)
same,AC50,[9],88.3 µM (active)
c1ccc(-c2ccc(-c3nc(-c4ccncc4)no3)cc2)cc1,EC50,[10],4.37 µM (active)
same,EC50,HT-1080,> 50 µM (not active)
O=C(O)c1cccc2c1NC(c1ccc(Cl)cc1)C1CC=CC21 (stereo unspecified),Ki,[11],119 µM (inactive)
COc1ccc(Oc2c(Cl)cnn(-c3cc(Cl)cc(Cl)c3)c2=O)cc1,IC50,[12],1.1 µM (active)
Cc1cc(O)nc(-n2nc(C)cc2NC(=O)c2ccccc2Br)n1,EC50,Wee1-like protein kinase,> 49.7 µM (inactive)
same,EC50,[13],> 49.7 µM (inactive)
CC1C/C(=C/c2ccncc2)C(=O)/C(=C/c2ccncc2)C1 (stereo unspecified),EC50,[14],> 120 µM (not active)
same,EC50,[15],> 60 µM (not active)
same,CC50,HeLa,> 1.22 µM (not active)
same,EC50,BJ [16],1.1 µM (inconclusive)
same,EC50,H4,> 120 µM (not active)
same,EC50,BJ [17],1.01 µM (inconclusive)
same,EC50,BJ [18],2.3 µM (inconclusive)
same,EC50,[19],2.23 µM (inconclusive)
same,IC50,[20],54 µM (inactive)
same,AC50,[21],4.23 µM (active)
same,EC50,BJ [22],0.291 µM (active)
same,AC50,INS1,3.66 µM (active)
